Results: ChEMBL document CHEMBL1201862, “PubChem BioAssay data set” (2004)
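Growth conditions: 96-well plates. Treatment: test compound, 48 hours, 5 concentrations. Analysis: linear interpolation between bracketing concentrations; unreached endpoints set to highest concentration. Here, GI50 denotes the concentration required for 50% inhibition of growth.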 Active and inactive are the calls of the source. Cut-off read from the data, not from the text of the source: active = GI50 up to about 1.1 µM and inactive = higher.

How the values were obtained:
Assay in all cases: DTP human tumour cell line panel, 48 h
BT-549 = test system: BT-549
DU-145 = test system: DU-145
HCT-116 = test system: HCT-116
HCT-15 = test system: HCT-15
HOP-62 = test system: HOP-62
HT-29 = test system: HT-29
Hs-578T = test system: Hs-578T
LOX IMVI = test system: LOX IMVI
M14 = test system: M14
MCF7 = test system: MCF7
MDA-MB-231 = test system: MDA-MB-231
NCI-H23 = test system: NCI-H23
NCI-H522 = test system: NCI-H522
OVCAR-3 = test system: OVCAR-3
OVCAR-5 = test system: OVCAR-5
SK-MEL-5 = test system: SK-MEL-5
SNB-19 = test system: SNB-19
SR = test system: SR
TK-10 = test system: TK-10
U-251 = test system: U-251

SMILES	GI50 (BT-549)	GI50 (DU-145)	GI50 (HCT-116)	GI50 (HCT-15)	GI50 (HOP-62)	GI50 (HT-29)	GI50 (Hs-578T)	GI50 (LOX IMVI)	GI50 (M14)	GI50 (MCF7)	GI50 (MDA-MB-231)	GI50 (NCI-H23)	GI50 (NCI-H522)	GI50 (OVCAR-3)	GI50 (OVCAR-5)	GI50 (SK-MEL-5)	GI50 (SNB-19)	GI50 (SR)	GI50 (TK-10)	GI50 (U-251)
COc1cccc(C2c3cc4c(cc3OC(C)(N3CCCC3)C2C)OCO4)c1O (stereo not drawn)	3.26 µM (inactive)	3.52 µM (inactive)	4.25 µM (inactive)	3.6 µM	7.98 µM (inactive)	2.36 µM (inactive)	2 µM (inactive)	4.82 µM (inactive)	3.08 µM (inactive)	3.47 µM (inactive)	3.01 µM (inactive)	3.05 µM (inactive)	2.05 µM (inactive)	2.05 µM (inactive)	8.36 µM (inactive)	2.57 µM (inactive)	4.06 µM (inactive)	2.06 µM (inactive)	5.4 µM (inactive)	4.35 µM (inactive)
N=C1N(S(=O)(=O)c2ccccc2)[C@@H](Cc2ccccc2)[C@H](c2ccccc2)C1(c1ccccc1)c1ccccc1	> 100 µM (inactive)	> 100 µM (inactive)	40.4 µM (inactive)	> 100 µM	> 100 µM (inactive)	> 100 µM (inactive)	> 100 µM (inactive)	> 100 µM (inactive)	> 100 µM (inactive)	> 100 µM (inactive)	> 100 µM (inactive)	41.4 µM (inactive)	39.5 µM (inactive)	10.4 µM (inactive)	> 100 µM (inactive)	23.6 µM (inactive)	> 100 µM (inactive)	41.3 µM (inactive)	> 100 µM (inactive)	64.1 µM (inactive)
O=C1NC(=O)C(C(CC(=O)c2ccc([N+](=O)[O-])cc2)c2ccccc2)C(=O)N1 (stereo not drawn)	> 100 µM (inactive)	> 100 µM (inactive)	14.8 µM (inactive)	> 100 µM	> 100 µM (inactive)	52.2 µM (inactive)	10.9 µM (inactive)	20 µM (inactive)	> 100 µM (inactive)	13.5 µM (inactive)	> 100 µM (inactive)	20.7 µM (inactive)	47.2 µM (inactive)	36.7 µM (inactive)	> 100 µM (inactive)	41.6 µM (inactive)	24.8 µM (inactive)	40 µM (inactive)	0.0471 µM (active)	49.4 µM (inactive)
C=C1[C@H](OCC(C)C)[C@@H](OCC(C)C)[C@@H](O)C(C)(C)/C=C/[C@H](C)C(=O)[C@@]2(O)C[C@H](C)[C@H](O)[C@@H]2[C@H]1OCC(C)C	> 7.5 µM (inactive)	> 7.5 µM (inactive)	> 7.5 µM (inactive)	6.92 µM	1.16 µM (inactive)		2.77 µM (inactive)	> 7.5 µM (inactive)	2.14 µM (inactive)	> 7.5 µM (inactive)	3.25 µM (inactive)	> 7.5 µM (inactive)	> 7.5 µM (inactive)	> 7.5 µM (inactive)	> 7.5 µM (inactive)	7.18 µM (inactive)	> 7.5 µM (inactive)	> 7.5 µM (inactive)	5.78 µM (inactive)	> 7.5 µM (inactive)
Cc1cccc2c(=O)c3c(O)cc(O)cc3n(C)c12	> 100 µM (inactive)	> 100 µM (inactive)	> 100 µM (inactive)	> 100 µM	> 100 µM (inactive)	> 100 µM (inactive)	6.37 µM (inactive)	> 100 µM (inactive)	> 100 µM (inactive)	> 100 µM (inactive)	> 100 µM (inactive)	> 100 µM (inactive)	> 100 µM (inactive)	> 100 µM (inactive)	> 100 µM (inactive)	> 100 µM (inactive)	> 100 µM (inactive)	> 100 µM (inactive)	> 100 µM (inactive)	> 100 µM (inactive)
CC(C)(C)OCC1NC(=O)[C@@H]2Cc3c([nH]c4ccccc34)C(C3CCCCC3)N2C1=O (stereo partly drawn)	20.9 µM (inactive)	34.8 µM (inactive)	15.3 µM (inactive)	24 µM	16.1 µM (inactive)	18 µM (inactive)	20.8 µM (inactive)	16.9 µM (inactive)	19.3 µM (inactive)	31.6 µM (inactive)	17.4 µM (inactive)	21.8 µM (inactive)	16.5 µM (inactive)	11.6 µM (inactive)	24.2 µM (inactive)	15.2 µM (inactive)	37.3 µM (inactive)	16.2 µM (inactive)	24.3 µM (inactive)	20.4 µM (inactive)
CN(C)CCNC1=Nc2ccccc2C(=O)N2CSCC12 (stereo not drawn)	> 100 µM (inactive)	> 100 µM (inactive)	> 100 µM (inactive)	> 100 µM	> 100 µM (inactive)	> 100 µM (inactive)	> 100 µM (inactive)	> 100 µM (inactive)	> 100 µM (inactive)	> 100 µM (inactive)	> 100 µM (inactive)		> 100 µM (inactive)	> 100 µM (inactive)	> 100 µM (inactive)	> 100 µM (inactive)	> 100 µM (inactive)	> 100 µM (inactive)	> 100 µM (inactive)	> 100 µM (inactive)
CN1c2ccc(O)c(O)c2-c2cc(O)cc3c2C1CCC3 (stereo not drawn)	17.3 µM (inactive)	16 µM (inactive)	14.6 µM (inactive)	20.6 µM	14.1 µM (inactive)	19.1 µM (inactive)	35.2 µM (inactive)	11.2 µM (inactive)	16.2 µM (inactive)	14.2 µM (inactive)	23.7 µM (inactive)	22.9 µM (inactive)	4.5 µM (inactive)	4.55 µM (inactive)	24.5 µM (inactive)	15.7 µM (inactive)	63.5 µM (inactive)	7 µM (inactive)	18 µM (inactive)	23.4 µM (inactive)
Cc1ccc(-c2cnc(NC3OC(COC(=O)c4ccccc4)C(OC(=O)c4ccccc4)C(OC(=O)c4ccccc4)C3OC(=O)c3ccccc3)s2)cc1 (stereo not drawn)	> 100 µM (inactive)	> 100 µM (inactive)	> 100 µM (inactive)	> 100 µM	> 100 µM (inactive)	> 100 µM (inactive)	82 µM (inactive)	> 100 µM (inactive)	40.6 µM (inactive)	> 100 µM (inactive)	> 100 µM (inactive)	> 100 µM (inactive)	> 100 µM (inactive)	> 100 µM (inactive)	61.7 µM (inactive)	> 100 µM (inactive)	> 100 µM (inactive)	> 100 µM (inactive)	> 100 µM (inactive)	> 100 µM (inactive)
O=C(N/N=C\c1cccc2c([N+](=O)[O-])cccc12)Nc1ccccc1	8.95 µM (inactive)	26.9 µM (inactive)	5.37 µM (inactive)	11.2 µM	16.2 µM (inactive)	14.8 µM (inactive)	13.2 µM (inactive)	7.74 µM (inactive)	12.9 µM (inactive)	8.83 µM (inactive)	17.8 µM (inactive)	15.8 µM (inactive)	14.6 µM (inactive)	14.2 µM (inactive)	15.1 µM (inactive)	14.1 µM (inactive)	14.6 µM (inactive)	11.3 µM (inactive)	11.7 µM (inactive)	7.08 µM (inactive)
